Source: publication PMC9029776, “Development and Experimental Validation of Regularized Machine Learning Models Detecting New, Structurally Distinct Activators of PXR” (Cells, 2022)

Biological target: T1, pregnane X receptor (PXR) (Homo sapiens, UniProt O75469)
T1 construct: gene NR1I2; PXR-LBD (132-188) + (189-434)
T1 sequence (O75469 132-188): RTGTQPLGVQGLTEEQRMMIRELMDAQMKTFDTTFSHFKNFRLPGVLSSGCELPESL
T1 sequence (O75469 189-434): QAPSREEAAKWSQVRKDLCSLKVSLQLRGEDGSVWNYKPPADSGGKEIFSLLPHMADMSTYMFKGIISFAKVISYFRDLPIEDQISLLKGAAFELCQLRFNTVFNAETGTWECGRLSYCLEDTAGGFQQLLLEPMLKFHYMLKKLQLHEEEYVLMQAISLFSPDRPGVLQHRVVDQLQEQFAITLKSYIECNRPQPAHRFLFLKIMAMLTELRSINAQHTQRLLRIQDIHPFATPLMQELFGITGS
Experiment: mammalian two-hybrid PXR-LBD assembly assay in HepG2
Format: cell-based
Settings: hepg2, 10 µM

Measured Activity ^1	Substance
91.00 % of rifampicin activity at 10 µM	MolPort-000-431-925 [compound 22]
71.67 % of rifampicin activity at 10 µM	MolPort-000-431-934 [compound 43]
100.91 % of rifampicin activity at 10 µM	MolPort-006-629-818 [compound 34]
80.37 % of rifampicin activity at 10 µM	MolPort-006-630-110 [compound 39]

Biological target: T2, pregnane X receptor (PXR) (Homo sapiens, UniProt O75469)
T2 construct: gene NR1I2; PXR-LBD (132-188) + (189-434) assembly; LBD (108-434) in co-factor assays
T2 sequence (O75469 108-434): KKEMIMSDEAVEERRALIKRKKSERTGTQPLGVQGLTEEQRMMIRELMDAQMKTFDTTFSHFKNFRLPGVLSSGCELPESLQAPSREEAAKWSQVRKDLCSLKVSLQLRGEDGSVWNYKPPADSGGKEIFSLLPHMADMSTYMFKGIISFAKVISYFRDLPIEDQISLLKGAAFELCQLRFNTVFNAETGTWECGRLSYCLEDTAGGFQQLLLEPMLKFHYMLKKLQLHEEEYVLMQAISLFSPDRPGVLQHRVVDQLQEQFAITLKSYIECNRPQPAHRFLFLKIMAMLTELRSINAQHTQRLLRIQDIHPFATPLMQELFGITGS
Experiment: mammalian two-hybrid PXR-LBD assembly assay in HepG2; NCOR2 release, NCOA1 recruitment; SPA70-blocked CYP3A4 reporter
Format: cell-based
Settings: hepg2, 10 µM

Measured Activity ^1	Substance
115.84 % of rifampicin activity at 10 µM	MolPort-000-431-927 [compound 42]
84.18 % of rifampicin activity at 10 µM	MolPort-002-216-386 [compound 53]
136.87 % of rifampicin activity at 10 µM	MolPort-006-630-224 [compound 25]
